pEC50: −log10 of the molar value.
Target: T1, human GLP1R (Homo sapiens, UniProt P43220)
T1 construct: expressed in transfected cells
Assay: GLP1R activity assay (CRE/luciferase reporter, cAMP potency)
Type: cell-based
Settings: BHK cells stably co-expressing human GLP1R and CRE luciferase reporter; 3 h at 37°C; 8 concentrations; four-parameter logistic fit (Hill slope = 1); mean of n = 3 independent experiments; read-out: EC50, activation of GLP1R
Protocol: GLP1R activity was measured through cyclic adenosine monophosphate (cAMP) potency using a clonal BHK cell line that stably co-express human GLP1R and the cAMP response element (CRE) luciferase reporter gene, essentially as previously reported ([33]). Briefly, frozen stocks of assay-ready cells were thawed to 37°C, washed once with PBS, and diluted to 100 000 cells/ml in assay buffer (DMEM without phenol red supplemented with 1× GlutaMAX, 10 mM HEPES, 1 w/v% ovalbumin, and 0.1 v/v% Pluronic F-68). Serial dilutions (10-fold dilutions in assay buffer, 8 concentrations for each compound) were made for GLP1–siRNA conjugates and free peptides in 96 well dilution plates using a Biomek i7 liquid handler. Then, 50 μl of each dilution were transferred to 96-well assay plates to which 50 μl of the diluted cell suspension was added (5000 cells/well). Plates were incubated for 3 h at 37°C in 5% CO2, then left at room temperature for 5 min before 100 μl SteadyLite Plus (PerkinElmer) was added to each well. Plates were sealed from light and incubated at room temperature for 30 min while gently shaking before luminescence was detected on a Biotek Synergy 2 plate reader.
This is performed by using a luciferase reporter under the control of CRE in recombinant BHK cells constitutively expressing human GLP1R. […]

T1 sequence (P43220 24-463): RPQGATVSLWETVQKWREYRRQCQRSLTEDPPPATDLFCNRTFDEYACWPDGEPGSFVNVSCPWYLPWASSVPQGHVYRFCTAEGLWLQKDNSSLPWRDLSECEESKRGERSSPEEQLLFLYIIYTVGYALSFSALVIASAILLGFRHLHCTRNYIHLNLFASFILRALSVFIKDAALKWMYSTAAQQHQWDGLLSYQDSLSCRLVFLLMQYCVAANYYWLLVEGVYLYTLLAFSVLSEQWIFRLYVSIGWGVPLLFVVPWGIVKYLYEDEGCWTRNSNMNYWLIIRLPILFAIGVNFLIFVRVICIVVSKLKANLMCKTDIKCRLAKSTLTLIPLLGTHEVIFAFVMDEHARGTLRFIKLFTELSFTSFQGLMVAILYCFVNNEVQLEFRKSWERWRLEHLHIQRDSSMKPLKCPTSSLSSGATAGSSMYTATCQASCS

pEC50: 11.05
SMILES: CC[C@H](C)[C@H](NC(=O)[C@H](Cc1ccccc1)NC(=O)[C@H](CCC(=O)O)NC(=O)[C@H](CCCNC(=N)N)NC(=O)[C@H](C)NC(=O)[C@H](C)NC(=O)[C@H](CCC(N)=O)NC(=O)CNC(=O)[C@H](CCC(=O)O)NC(=O)[C@H](CC(C)C)NC(=O)[C@H](Cc1ccc(O)cc1)NC(=O)[C@H](CO)NC(=O)[C@H](CO)NC(=O)[C@@H](NC(=O)[C@H](CC(=O)O)NC(=O)[C@H](CO)NC(=O)[C@@H](NC(=O)[C@H](Cc1ccccc1)NC(=O)[C@@H](NC(=O)CNC(=O)[C@H](CCC(=O)O)NC(=O)[C@H](C)NC(=O)[C@@H](N)Cc1c[nH]cn1)[C@@H](C)O)[C@@H](C)O)C(C)C)C(=O)N[C@@H](C)C(=O)N[C@@H](Cc1c[nH]c2ccccc12)C(=O)N[C@@H](CC(C)C)C(=O)N[C@H](C(=O)N[C@@H](CCCNC(=N)N)C(=O)NCC(=O)N[C@@H](CCCNC(=N)N)C(=O)NCC(=O)N[C@@H](CCCCN)C(=O)O)C(C)C [A]

— article PMC10783514, “Synthesis of peptide–siRNA conjugates via internal sulfonylphosphoramidate modifications and evaluation of their in vitro activity” (Nucleic Acids Research, 2023)
